Laboratory results from patent publication US20170065564A1, “BIS-CYCLIC GUANIDINE COMPOUND COMPOSITIONS, METHODS OF USE AND TREATMENT THEREOF” (University of South Florida, priority 2014, published 2017).
≈ marks a conversion by molar mass, not a printed value.

Experiments:
[1] = tested on: Staphylococcus aureus (USA300 strain FPR3757); test: Murine model of lethal peritonitis; assay type: in vivo, mice; conditions: 2× MIC, I.M., 1 h post-infection, six mice per group
Description: Using MRSA as a representative ESKAPE organism, we infected mice with 1×10^8 bacterial cells in 5% mucin via intraperitoneal injection. At 1 h post-infection, mice were then I.V. injected with either vancomycin (positive control), or I.M. with our front runner compounds.
Six mice per group were injected with 1×10^8 CFU ml^−1 of Staphylococcus aureus (USA300 strain FPR3757) in PBS containing 5% mucin. […] Mice were monitored twice daily for five days to assess mortality. The clinical endpoint of this study was when the mice reached a pre-moribund state. Characteristics of pre-moribund state include: hunched posture, rapid, shallow and/or labored breathing, ruffled fur, lethargy, failure to respond to stimuli, soiled anogenital area, paralysis, paresis, head tilt, circling, vocalizations, non-purposeful movements and/or were unable to eat or drink. Those mice reaching this state prior to the completion of the 5 day infection period were euthanized. The number of mice surviving between control and treatment groups was compared and analyzed for statistical significance using a log rank test.

[2] = tested on: S. aureus; test: Resistance serial passage assay; assay type: cell-based, Staphylococcus aureus; conditions: 8 passages, concentration doubled each day
Description: ESKAPE pathogens were grown overnight in liquid media at 37° C. These cultures were then diluted 1:100 in fresh media, and seeded into a 96-well plate. Lead bis-cyclic guanidines or control agents were added to respective wells at half MIC concentrations. Plates were then incubated for 24 hours at 37° C., with bacteria removed from these cultures on the following day, to inoculate fresh media (1:100 dilution) containing compounds at a 2-fold higher concentrations. These were then grown overnight, and the procedure repeated for a total of eight days. […] Each experiment was performed in triplicate, yielding identical results.

[3] = tested on: human A549 cells; test: Cytotoxicity assay (MTT); assay type: cell-based; conditions: for IC50: Homo sapiens, A549, MTT, 48 hours
Description: Cytotoxicity assays were performed using human A549 cells (adenocarcinomic human alveolar epithelial cells), as described by us previously.^44 Briefly, cells were cultured in F-12K Nutrient mixture (Kaighn's Modification) media containing L-glutamine, supplemented with 10% fetal bovine serum and 1% penicillin-streptomycin for 3 days at 37° and 5% CO2. Cells were then diluted to 1.0×10^5 ml^−1 using F-12K supplemented media, and added to 96 well tissue culture plates at a volume of 100 μl. Plates were incubated for 24 hours at 37° C. and 5% CO2, allowing the cells to adhere to the plastic. […] Plates were then incubated for 48 hours at 37° C. and 5% CO2. After 48 hours the media was removed, and new media added containing MTT (3-(4, 5-dimethylthiazol-2-yl)-2, 5-diphenyltetrazolium bromide), followed by incubation for four hours at 37° C. and 5% CO2. After 4 h, 50 μl of media was removed, replaced with DMSO and incubated for ten minutes at 37° C. in order to solubilize any formazan produced. A Biotek plate reader was used to measure the absorbance of formazan production at […], and IC50 values were determined for each of the five compounds. Front runners were solvated in 45% w/v (2-hydroxypropyl)-β-cyclodextrin in water for these studies; which was also used alone as a negative control. IC50 values were determined for each compound by comparison to vehicle only controls, to assess toxicity to human cells.

[4] = tested on: Staphylococcus aureus; test: MIC micro broth dilution assay; assay type: cell-based; conditions: for stacked score activity, 100/MIC, S: S. aureus; for MIC: Staphylococcus aureus
Outline: (§1)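 Strains were multidrug-resistant clinical isolates grown in LB (Gram-negative) or TSB (Gram-positive), diluted 1:1,000 before compound addition.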

[5] = tested on: ESKAPE pathogens; test: MIC micro broth dilution assay, statements and stacked scores over all ESKAPE pathogens; assay type: cell-based; conditions: letters E,S,K,A,P,E = ESKAPE pathogens, — = none
Outline: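 Overnight cultures of multidrug-resistant clinical isolates, diluted 1 in 1,000 (Gram-positives in TSB, Gram-negatives in LB), were exposed to decreasing compound concentrations in DMF (≤2.0%) at 37° C. MIC was read visually as no turbidity after 24 hours, in triplicate. Broad-spectrum activity was ranked by stacked scores.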

[6] = tested on: Enterococcus faecium; test: MIC micro broth dilution assay; assay type: cell-based; conditions: for stacked score activity, 100/MIC, E: E. faecium; for MIC: Enterococcus faecium
Outline: as §1

[7] = tested on: Enterobacter cloacae; test: MIC micro broth dilution assay; assay type: cell-based; conditions: for stacked score activity, 100/MIC, E: E. cloacae; for MIC: Enterobacter cloacae
Outline: as §1

[8] = panel of E. cloacae clinical isolates

## CCCC[C@H]1CN(CCCC[C@H]2CNC(=N)N2CCc2cccc(C(F)(F)F)c2)C(=N)N1CCCCC1CCCCC1 [Compound 2, (S)-4-butyl-3-(4-cyclohexylbutyl)-1-(4-((S)-2-imino-3-(3-(trifluoromethyl)phenethyl)imidazolidin-4-yl)butyl)imidazolidin-2-imine]
[1]
  survival of infected mice over 5 day infection period: only a single mouse succumbing to infection after the first day
[2]
  increase in MIC after serial passage: two-fold
[3]
  IC50: 125 µM
[4]
  stacked score activity, 100/MIC, S: 33
[4]; S. aureus isolate 542
  MIC: 2 µM (≈ 1.18 µg/mL)
[4]; S. aureus isolate 626
  MIC: 2 µM (≈ 1.18 µg/mL)
[4]; S. aureus isolate 635
  MIC: 2 µM (≈ 1.18 µg/mL)
[4]; S. aureus isolate 648
  MIC: 2 µM (≈ 1.18 µg/mL)
[4]; S. aureus isolate 690
  MIC: 2 µM (≈ 1.18 µg/mL)
[4]; S. aureus isolate 693
  MIC: 2 µM (≈ 1.18 µg/mL)
[4]; S. aureus isolate 715
  MIC: 2 µM (≈ 1.18 µg/mL)
[4]; S. aureus isolate 728
  MIC: 2 µM (≈ 1.18 µg/mL)
[4]; S. aureus isolate 834
  MIC: 2 µM (≈ 1.18 µg/mL)
[4]; S. aureus isolate 1043
  MIC: 2 µM (≈ 1.18 µg/mL)
[4]; S. aureus isolate 1049
  MIC: 2 µM (≈ 1.18 µg/mL)
[4]; purified compound, Table 1
  MIC: 1.52 µM (≈ 0.898 µg/mL)
[5]
  pathogens against which the compound showed activity at 4 ug/ml: ESAP
  pathogens against which the compound showed activity at 5 ug/ml: ESKAPE
  pathogens against which the compound showed activity at 10 ug/ml: ESKAPE
  pathogens against which the compound showed activity at 25 ug/ml: ESKAPE
[6]
  stacked score activity, 100/MIC, E: 50
[6]; E. faecium isolate 1406
  MIC: 2 µM (≈ 1.18 µg/mL)
[6]; E. faecium isolate 1407
  MIC: 2 µM (≈ 1.18 µg/mL)
[6]; E. faecium isolate 1432
  MIC: 2 µM (≈ 1.18 µg/mL)
[6]; E. faecium isolate 1438
  MIC: 2 µM (≈ 1.18 µg/mL)
[6]; E. faecium isolate 1439
  MIC: 2 µM (≈ 1.18 µg/mL)
[6]; E. faecium isolate 1443
  MIC: 2 µM (≈ 1.18 µg/mL)
[6]; E. faecium isolate 1444
  MIC: 2 µM (≈ 1.18 µg/mL)
[6]; E. faecium isolate 1449
  MIC: 2 µM (≈ 1.18 µg/mL)
[6]; E. faecium isolate 1450
  MIC: 2 µM (≈ 1.18 µg/mL)
[6]; E. faecium isolate 1451
  MIC: 2 µM (≈ 1.18 µg/mL)
[6]; purified compound, Table 1
  MIC: 1.52 µM (≈ 0.898 µg/mL)
[7]
  stacked score activity, 100/MIC, E: 20
[7]; E. cloacae isolate 1404
  MIC: 2 µM (≈ 1.18 µg/mL)
[7]; E. cloacae isolate 1405
  MIC: 2 µM (≈ 1.18 µg/mL)
[7]; E. cloacae isolate 1430
  MIC: 2 µM (≈ 1.18 µg/mL)
[7]; E. cloacae isolate 1431
  MIC: 2 µM (≈ 1.18 µg/mL)
[7]; E. cloacae isolate 1445
  MIC: 2 µM (≈ 1.18 µg/mL)
[7]; E. cloacae isolate 1446
  MIC: 7 µM (≈ 4.14 µg/mL)
[7]; E. cloacae isolate 1447
  MIC: 3 µM (≈ 1.77 µg/mL)
[7]; E. cloacae isolate 1448
  MIC: 3 µM (≈ 1.77 µg/mL)
[7]; E. cloacae isolate 1454
  MIC: 2 µM (≈ 1.18 µg/mL)
[7]; E. cloacae isolate 1455
  MIC: 2 µM (≈ 1.18 µg/mL)
[7]; purified compound, Table 1
  MIC: 1.52 µM (≈ 0.898 µg/mL)
[7]; [8]
  concentration inhibiting 70% of strains: 2 µM
  concentration inhibiting 90% of isolates: 5 µM

## CCCCCCCN1C(=N)N(CCCC[C@H]2CNC(=N)N2CCc2cccc(C(F)(F)F)c2)C[C@@H]1CC1CCCCC1 [Compound 7]
[1]
  survival of infected mice over 5 day infection period: 1 mouse lost on each of days 2 and 4
[2]
  increase in MIC after serial passage: four-fold
[3]
  IC50: 65.7 µM
[3]; above 45 μM, at concentrations up to 225 μM
  A549 cell recovery compared to vehicle only controls: ≥ 33%
[4]
  stacked score activity, 100/MIC, S: 33
[4]; S. aureus isolate 542
  MIC: 2 µM (≈ 1.18 µg/mL)
[4]; S. aureus isolate 626
  MIC: 2 µM (≈ 1.18 µg/mL)
[4]; S. aureus isolate 635
  MIC: 2 µM (≈ 1.18 µg/mL)
[4]; S. aureus isolate 648
  MIC: 2 µM (≈ 1.18 µg/mL)
[4]; S. aureus isolate 690
  MIC: 2 µM (≈ 1.18 µg/mL)
[4]; S. aureus isolate 693
  MIC: 2 µM (≈ 1.18 µg/mL)
[4]; S. aureus isolate 715
  MIC: 2 µM (≈ 1.18 µg/mL)
[4]; S. aureus isolate 728
  MIC: 2 µM (≈ 1.18 µg/mL)
[4]; S. aureus isolate 834
  MIC: 2 µM (≈ 1.18 µg/mL)
[4]; S. aureus isolate 1043
  MIC: 2 µM (≈ 1.18 µg/mL)
[4]; S. aureus isolate 1049
  MIC: 2 µM (≈ 1.18 µg/mL)
[4]; purified compound, Table 1
  MIC: 1.52 µM (≈ 0.898 µg/mL)
[5]
  pathogens against which the compound showed activity at 4 ug/ml: ESAP
  pathogens against which the compound showed activity at 5 ug/ml: ESKAPE
  pathogens against which the compound showed activity at 10 ug/ml: ESKAPE
  pathogens against which the compound showed activity at 25 ug/ml: ESKAPE
[6]
  stacked score activity, 100/MIC, E: 33
[6]; E. faecium isolate 1406
  MIC: 2 µM (≈ 1.18 µg/mL)
[6]; E. faecium isolate 1407
  MIC: 2 µM (≈ 1.18 µg/mL)
[6]; E. faecium isolate 1432
  MIC: 2 µM (≈ 1.18 µg/mL)
[6]; E. faecium isolate 1438
  MIC: 2 µM (≈ 1.18 µg/mL)
[6]; E. faecium isolate 1439
  MIC: 2 µM (≈ 1.18 µg/mL)
[6]; E. faecium isolate 1443
  MIC: 2 µM (≈ 1.18 µg/mL)
[6]; E. faecium isolate 1444
  MIC: 2 µM (≈ 1.18 µg/mL)
[6]; E. faecium isolate 1449
  MIC: 2 µM (≈ 1.18 µg/mL)
[6]; E. faecium isolate 1450
  MIC: 2 µM (≈ 1.18 µg/mL)
[6]; E. faecium isolate 1451
  MIC: 2 µM (≈ 1.18 µg/mL)
[6]; purified compound, Table 1
  MIC: 1.52 µM (≈ 0.898 µg/mL)
[7]
  stacked score activity, 100/MIC, E: 20
[7]; E. cloacae isolate 1404
  MIC: 2 µM (≈ 1.18 µg/mL)
[7]; E. cloacae isolate 1405
  MIC: 2 µM (≈ 1.18 µg/mL)
[7]; E. cloacae isolate 1430
  MIC: 2 µM (≈ 1.18 µg/mL)
[7]; E. cloacae isolate 1431
  MIC: 2 µM (≈ 1.18 µg/mL)
[7]; E. cloacae isolate 1445
  MIC: 2 µM (≈ 1.18 µg/mL)
[7]; E. cloacae isolate 1446
  MIC: 5 µM (≈ 2.95 µg/mL)
[7]; E. cloacae isolate 1447
  MIC: 2 µM (≈ 1.18 µg/mL)
[7]; E. cloacae isolate 1448
  MIC: 2 µM (≈ 1.18 µg/mL)
[7]; E. cloacae isolate 1454
  MIC: 2 µM (≈ 1.18 µg/mL)
[7]; E. cloacae isolate 1455
  MIC: 2 µM (≈ 1.18 µg/mL)
[7]; purified compound, Table 1
  MIC: 1.52 µM (≈ 0.898 µg/mL)
[7]; [8]
  concentration inhibiting 90% of isolates: 2 µM
